In ChEMBL document CHEMBL4118163, “Identification and preliminary structure-activity relationship studies of novel pyridyl sulfonamides as potential Chagas disease therapeutic agents” (Bioorg Med Chem Lett, 2018):

What was measured:
Trypanosoma cruzi [1] = test: Antitrypanosomal activity against Trypanosoma cruzi Tulahuen amastigotes infected in mouse L929 cells assessed as reduction in infection level at 10 uM after 96 hrs by beta galactosidase reporter assay relative to control; type: functional; conditions: L929, 96 h
[2] = Cytotoxicity against mouse L929 cells assessed as reduction in cell viability after 96 hrs by alamar blue assay; type: cell-based; conditions: read-out: LC50
Trypanosoma cruzi [3] = test: Antitrypanosomal activity against Trypanosoma cruzi Tulahuen amastigotes infected in mouse L929 cells after 96 hrs by beta galactosidase reporter assay; type: functional, organism-based; conditions: L929, 96 h
[4] = Cytotoxicity against Swiss Webster mouse cardiomyocyte assessed as reduction in cell viability after 24 hrs by PrestoBlue assay; parameters: species or system Cardiac Muscle Cell; conditions: cardiomyocytes, read-out: LC50
Trypanosoma cruzi [5] = test: Antitrypanosomal activity against bloodstream trypomastigote stage of Trypanosoma cruzi Y infected in Swiss Webster mouse cardiac cells after 24 hrs; type: functional, organism-based
[6] = Selectivity index, ratio of LC50 for mouse L929 cells to EC50 for Trypanosoma cruzi Tulahuen amastigotes; type: toxicity; conditions: read-out: Selectivity Index
Vero = test: Cytotoxic activity against African green monkey Vero cells; type: cell-based; conditions: Chlorocebus sabaeus
Trypanosoma cruzi [7] = test: Antitrypanosomal activity against Trypanosoma cruzi Silvio X10/7 intracellular forms; type: functional, organism-based
[8] = Selectivity index, ratio of LC50 for Swiss Webster mouse cardiac cells to EC50 for bloodstream trypomastigote stage of Trypanosoma cruzi Y; type: toxicity; conditions: read-out: Selectivity Index

Structure (SMILES)	inhibition at 10 µM (Trypanosoma cruzi [1])	CC50 at 96 h [2]	EC50 (Trypanosoma cruzi [3])	CC50 at 24 h [4]	EC50 (Trypanosoma cruzi [5])	selectivity ratio [6]	EC50 (Vero)	EC50 (Trypanosoma cruzi [7])	selectivity ratio [8]
COc1ccc(S(=O)(=O)NCc2ccccn2)c(C)c1C	7.2%	> 200 µM	–	–	–	–	–	–	–
CCOc1ccc(S(=O)(=O)NCc2cccnc2)c2ccccc12	1.1%	> 200 µM	–	–	–	–	–	–	–
CCOc1ccc(S(=O)(=O)Nc2ccncc2)c(C)c1C	3.6%	> 200 µM	–	–	–	–	–	–	–
CCOc1ccc(S(=O)(=O)NCc2ccccn2)c(C)c1C	3.6%	> 200 µM	–	–	–	–	–	–	–
COc1ccc(S(=O)(=O)NCc2cccnc2)c2ccccc12	28%	> 200 µM	–	–	–	–	–	–	–
COc1c(C)cc(S(=O)(=O)Nc2cccnc2)c(C)c1C	2.1%	> 200 µM	–	–	–	–	–	–	–
CCCOc1cc(C)c(S(=O)(=O)Nc2cccnc2)cc1C	78%	> 200 µM	13.2 µM	> 100 µM	> 50 µM	> 15	–	–	–
CCOc1ccc(S(=O)(=O)Nc2cccnc2)cc1CC	3%	> 200 µM	–	–	–	–	–	–	–
COc1ccc(S(=O)(=O)Nc2ccc(Cc3ccncc3)cc2)c2ccccc12	0%	> 200 µM	–	–	–	–	–	–	–
COc1ccc2cc(S(=O)(=O)Nc3cccnc3)ccc2c1	41.1%	> 200 µM	5.44 µM	> 100 µM	> 50 µM	> 36	–	–	–
CCOc1ccc(S(=O)(=O)Nc2cccnc2)c(C)c1C	62%	> 200 µM	14.8 µM	> 100 µM	> 50 µM	> 13.5	–	–	–
CCOc1ccc(S(=O)(=O)Nc2cccnc2)cc1C(C)(C)C	1.9%	> 200 µM	–	–	–	–	–	–	–
CCOc1ccc(S(=O)(=O)NCc2ccncc2)c(C)c1C	65%	> 200 µM	8.62 µM	> 100 µM	> 50 µM	> 23	–	–	–
COc1cc(C)c(S(=O)(=O)Nc2cccnc2)cc1C(C)C	26.7%	> 200 µM	–	–	–	–	–	–	–
CCOc1ccc(S(=O)(=O)Nc2cccnc2)c2ccccc12	–	> 400 µM	> 25 µM	–	–	–	50 µM	5.5 µM	–
CCOc1ccc(S(=O)(=O)Nc2ccncc2)c2ccccc12	0.1%	> 200 µM	–	–	–	–	–	–	–
O=C(Cn1ccnc1[N+](=O)[O-])NCc1ccccc1 [BENZNIDAZOLE]	89.3%	> 400 µM	3.51 µM	> 1000 µM	11.2 µM	> 114	–	–	> 89
CC1CS(=O)(=O)CCN1/N=C/c1ccc([N+](=O)[O-])o1 (centres undefined) [NIFURTIMOX]	–	–	–	–	–	–	50 µM	0.9 µM	–
